The text below walks through data of PubChem BioAssay (NCI).

Holding throughout (experiment): inhibition of tumour cell growth, NCI panel, 48 h
For assay [1], the system named is RXF 393 renal.
Assay [2] deals with UACC-62 melanoma.
Assay [3] relates to NCI-H522 lung.
Assay [4] concerns MALME-3M melanoma.
Assay [5] relates to LOX IMVI melanoma.
For assay [6], the system named is T-47D breast.
For assay [7], the system named is SK-MEL-5 melanoma.
The subject of assay [8] is SN12C renal.
The test system of assay [9] is OVCAR-3 ovarian.
For assay [10], the system named is SF-268 CNS.
Assay [11] deals with SNB-19 CNS.
Assay [12] has as its system SR leukemia.
In assay [13] the test system is SK-MEL-28 melanoma.

SMILES strings stand for the structures.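 Results reflect a 48-hour exposure of cells in 96-well plates to compound at five concentrations. TGI marks complete inhibition of growth.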 Bounds are passed on as bounds.

In the case of `CC1=NN(c2ccccc2Cl)C2(C1)C(Cl)C(=O)N2c1nc2ccccc2s1` (centres undefined), the TGI in assay [1] is over 100 µM; in assay [2] it was over 100 µM; in assay [3], 35 µM; in assay [4], over 100 µM; in assay [5], 33.7 µM; in [6] it was over 100 µM. Further, the TGI was over 100 µM in [7]; over 100 µM in assay [8]; 53.1 µM in assay [9]; over 100 µM in assay [10]; over 100 µM in assay [11]; 49.6 µM in assay [12].

Take `O=C1/C(=C/c2ccc([N+](=O)[O-])cc2)Oc2cc(O)ccc21`: the TGI is over 100 µM in assay [1]; over 100 µM in [2]; 65.6 µM in assay [3]; over 100 µM in assay [6]; 48 µM in assay [7]; 87.1 µM in assay [8]. The TGI was 73.8 µM in assay [9]; over 100 µM in assay [13]; over 100 µM in assay [10]; over 100 µM in [11]; 46.1 µM in assay [12].

Take `O=C1NCC2(CCN(CC3COc4ccccc4O3)CC2)N1c1ccccc1` (centres undefined): the TGI in assay [1], in assay [2], in assay [3], in [4], in assay [5] and in assay [6] was over 100 µM throughout. The TGI in assay [7], in assay [8], in [9], in [13], in [10] and in assay [11] was over 100 µM throughout. Besides, in assay [12], the TGI is over 100 µM.

Regarding `CN(C)Cc1cc(C(=O)/C=C/c2ccc(Cl)cc2Cl)cc(CN(C)C)c1O`, the TGI in [1] was 10.7 µM; in assay [3], 7.29 µM; in assay [4], 23.5 µM; in assay [5], 2.49 µM; in [6], 22.1 µM; in assay [7], 5.66 µM. The TGI in [8] was 6.96 µM; in [9] it was 11.6 µM; in assay [13], 19.1 µM; in [10], 20 µM; in [11] it was 19.9 µM; in [12], over 100 µM.

For the compound `N#Cc1ccc(N=NN2CCCC2)cc1`, the TGI in assay [1], in assay [2], in [3], in assay [5], in [6] and in assay [7] was over 100 µM each time. The TGI in [8], in assay [9], in assay [10], in assay [11] and in assay [12] was over 100 µM in each case.

Turning to `O=C1C=CC2(C=C1)O[C@H](CCc1ccccc1)[C@@H](CCc1ccccc1)O2`, the TGI is over 100 µM in assay [1]; over 100 µM in assay [2]; over 100 µM in [4]; 27.3 µM in [5]; over 100 µM in assay [6]; over 100 µM in [7]. In addition, the TGI in assay [8], in assay [9], in [13], in assay [10], in assay [11] and in assay [12] was over 100 µM each time.

For `CCCCCCCCC#CCCCCCCC(F)C(=O)O` (centres undefined), the TGI in assay [1], in assay [3], in assay [4], in assay [5], in [6] and in [7] was over 100 µM in each case. The TGI in [9], in assay [13], in [10], in assay [11] and in assay [12] was over 100 µM throughout.

Regarding `C1=C(c2ccccc2)NC2=N[C@H]3CCCC[C@@H]3N2C1c1ccccc1` (some centres undefined), the TGI came out at 28.6 µM in assay [2]; 26.6 µM in [4]; 29.6 µM in assay [5]; 35.5 µM in assay [6]; 27.9 µM in assay [7]; 25.8 µM in [9]. Also, the TGI in [13] stood at 27.4 µM; in assay [10], 51.7 µM; in assay [11] it was 27.7 µM; in assay [12] it was 39.3 µM.

For the compound `N=c1oc2ccccc2cc1C(=O)Nc1ccccn1`, the TGI is over 100 µM in assay [1]; over 100 µM in assay [2]; 54 µM in assay [4]; over 100 µM in assay [5]; over 100 µM in assay [6]; over 100 µM in assay [7]. The TGI in [8], in [9], in assay [13], in assay [10], in assay [11] and in [12] was over 100 µM each time.

Turning to `CCOC(=O)/C(=C\n1c(=O)sc2ccccc21)C(=O)c1ccccc1`, the TGI in assay [1], in [2], in assay [3], in [4], in assay [5] and in [6] was over 100 µM each time. For the same compound, the TGI in assay [7], in assay [8], in [13], in assay [10] and in assay [12] was over 100 µM each time.

`COc1ccc(C(=O)c2[nH]c(Nc3cc(C)ccn3)c(C(=S)Nc3ccccc3)c2N)cc1`: the TGI in assay [1] is 38.4 µM; in [2], 26.7 µM; in assay [3], 29.9 µM; in [4], 30.8 µM; in assay [5], 42.2 µM; in [6], over 100 µM. Further, the TGI in assay [8] was 39.2 µM; in assay [9] it was over 100 µM; in [13], 34 µM; in [10], 68.2 µM; in assay [11], 56 µM; in assay [12], over 100 µM.

On to `O=C(O)c1cc(-c2ccc3cc(O)c(O)cc3c2)ccc1O`, for which the TGI in assay [2], in assay [3], in [4], in [6], in assay [7] and in assay [8] was over 12.5 µM each time. For the same compound, the TGI in assay [9], in assay [13], in assay [10], in [11] and in assay [12] was over 12.5 µM in each case.

Consider `Clc1nc(NC23CC4CC(CC(C4)C2)C3)nc(NC23CC4CC(CC(C4)C2)C3)n1`, for which the TGI in [1] is over 80.2 µM; in assay [2], over 100 µM; in assay [4], over 100 µM; in assay [5] it was over 100 µM; in assay [6] it was over 89 µM; in assay [7], over 100 µM. The TGI in assay [8], in assay [9], in [13], in assay [10], in assay [11] and in assay [12] was over 100 µM throughout.

For the compound `CC1(C)COC(c2cccc(C(=O)c3ccccc3)c2)=N1`, the TGI in [2] is over 100 µM; in assay [3], 88.1 µM; in assay [4], over 100 µM; in [5], over 100 µM; in assay [6], over 100 µM; in assay [7], 32.1 µM. In addition, the TGI in assay [8], in [9], in assay [13], in assay [10], in assay [11] and in [12] was over 100 µM in each case.

Consider `CCC(=O)NC(NNS(=O)(=O)c1ccc(C)cc1)(C(F)(F)F)C(F)(F)F`, for which the TGI in assay [1] was 82.9 µM; in assay [2], over 100 µM; in assay [3], 62.4 µM; in assay [4] it was over 100 µM; in assay [5], over 100 µM; in assay [6], over 100 µM. Further, the TGI was over 100 µM in assay [7]; over 10 µM in [9]; 61.5 µM in assay [13]; over 100 µM in [10]; over 100 µM in assay [11]; over 100 µM in assay [12].

Regarding `CC(C)(CO)CNc1nc(N)nc(Cl)c1C=O`, the TGI in [1] is 44.9 µM; in assay [2], 32.6 µM; in assay [3], 23.5 µM; in assay [4] it was over 100 µM; in assay [5] it was 33.8 µM; in [6], over 100 µM. Moreover, the TGI in assay [7] was over 100 µM; in [8] it was 55.3 µM; in assay [9] it was 62.8 µM; in assay [13] it was 83.8 µM; in assay [10], 42.2 µM; in assay [12], 66.6 µM.

In the case of `Nc1nc(N)c2ncn(Cc3ccccc3CO)c2n1`, the TGI in assay [2], in assay [3], in assay [4], in assay [5], in [6] and in [7] was over 100 µM throughout. The TGI in assay [8], in [9], in assay [13], in assay [10], in assay [11] and in assay [12] was over 100 µM in each case.

With `C#CCNC(CCCN=C(N)N)C(=O)O` (centres undefined), the TGI in assay [1], in [2], in assay [3], in assay [4], in assay [5] and in assay [6] was over 100 µM each time. The TGI in assay [7], in [9], in [13], in assay [10], in assay [11] and in assay [12] was over 100 µM in each case.

Take `COc1ccc(/C=C2\CC3C4CC=C5C[C@@H](N6CCCC6)CC[C@]5(C)C4CC[C@]3(C)[C@H]2O)cc1OC` (some centres undefined): the TGI in assay [1] was found to be 25.2 µM; in assay [2], 16 µM; in assay [3], 16 µM; in [4], 16.7 µM; in [5] it was 18.8 µM; in assay [6] it was 26.6 µM. The TGI is 14.3 µM in [7]; 18.3 µM in [8]; 16.8 µM in [9]; 20.1 µM in assay [13]; 22.4 µM in assay [10]; 19.1 µM in assay [11].

On to `CC1=NN(c2nc(N)nc(CCl)n2)C(C)(C)C1`, for which the TGI in assay [1] is over 100 µM; in [2], 32.5 µM; in assay [3], 2.94 µM; in assay [5] it was 3.35 µM; in assay [6], over 100 µM; in [7], over 56 µM. Further, the TGI was over 68.7 µM in assay [8]; over 51.8 µM in assay [9]; over 75.8 µM in assay [13]; 68 µM in assay [10]; over 100 µM in assay [11]; over 69.7 µM in assay [12].

With `COC(=O)c1c(C)c2c(c(C)c1O)OC(=O)c1c(C)cc(O)c(C=O)c1O2`, the TGI in assay [1], in assay [2], in [3], in [4], in [6] and in [7] was over 100 µM each time. Moreover, the TGI in [8], in assay [9], in assay [13], in [10], in assay [11] and in assay [12] was over 100 µM in each case.

Take `CC1(C)C2CCC1(C)C(NC(=O)COCCOCC(N)=O)C2` (centres undefined): the TGI in assay [1], in [2], in assay [3], in assay [4], in [6] and in assay [7] was over 100 µM in each case. In addition, the TGI in assay [8] was over 100 µM; in [9], over 100 µM; in [13] it was over 100 µM; in assay [10] it was over 100 µM; in assay [11] it was over 100 µM; in assay [12], 85.1 µM.

Turning to `COc1cccc(C2c3cc4c(cc3OC(N3CCCC3)C2c2ccccc2)OCO4)c1O` (centres undefined), the TGI in assay [2] is 47.2 µM; in [3] it was 58.4 µM; in assay [5], 46.2 µM; in assay [6] it was over 100 µM; in assay [7], 22.6 µM; in [8], 31 µM. The TGI in [9] was determined as 27.8 µM; in assay [13] it was 28.1 µM; in [10], 46.4 µM; in assay [11], 27.7 µM; in [12], 32.7 µM.
